The values that follow come from ChEMBL document CHEMBL1201862, “PubChem BioAssay data set” (2004).

SMILES strings stand for the structures.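 Five concentrations, 48 hours, 96-well plates. GI50 is the concentration that inhibits growth by half.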 Calls of active or inactive are those of the source. No stated cut-off is given here; in the data, active = GI50 up to about 1.1 µM and inactive = higher. A value given as a limit tells only on which side of the number the result lay.

Test in all cases: NCI-60 cell line screen, 48 h
Test [1] has as its system CAKI-1.
Test [2] relates to MCF7.
In test [3] the test system is SN12C.
Test [4] deals with OVCAR-5.
Test [5] relates to M14.
Test [6] has as its system UO-31.
Test [7] has as its system IGROV-1.
Test [8] deals with 786-0.
The subject of test [9] is UACC-257.
Test [10] relates to MDA-MB-435.
For test [11], the system named is SF-295.
Test [12] concerns SR.
Test [13] relates to OVCAR-4.
The test system of test [14] is MDA-N.
The test system of test [15] is HCC 2998.
Test [16] relates to OVCAR-8.
In test [17] the test system is U-251.
Test [18] has as its system NCI-H23.
Test [19] has as its system NCI-H226.
Test [20] concerns RPMI-8226.

As to `Clc1sc(Cl)c2c1[C@@H](Cl)C[C@@H]2Br`, the GI50 in [1] is > 100 µM (inactive); in [2] it was 43.8 µM (inactive); in test [3], > 100 µM (inactive); in test [4] it was > 100 µM (inactive); in test [5], > 100 µM (inactive); in [6], > 100 µM (inactive). Also, the GI50 in test [7] was 72.9 µM (inactive); in test [8] it was > 100 µM (inactive); in test [9], 70.1 µM (inactive); in test [10], 40.6 µM (inactive); in test [11], > 100 µM (inactive); in test [12], 18.8 µM (inactive). Besides, the GI50 in [13] was > 100 µM (inactive); in test [14], 84.3 µM (inactive); in [15], > 100 µM (inactive); in [16] it was > 100 µM (inactive); in test [17], > 100 µM (inactive); in test [18], 61.4 µM (inactive).

With `CC1CC(c2ccccc2)Nc2nc3ccccc3n21` (stereo not given), the GI50 was > 100 µM (inactive) in [1]; > 100 µM (inactive) in [2]; > 100 µM (inactive) in test [4]; > 100 µM (inactive) in [5]; 59.8 µM (inactive) in [6]; > 100 µM (inactive) in [19]. Besides, the GI50 in test [7], in test [8], in [9], in [10], in test [11] and in test [12] was > 100 µM (inactive) each time. In addition, the GI50 in [13], in [14], in test [20], in [16], in test [17] and in [18] was > 100 µM (inactive) each time.

Consider `CC(=O)C(C)C(=O)N1C(=O)N(C)C2(C)N(C)C(=O)NC12C` (stereo not given), for which the GI50 in [1], in test [2], in test [3], in test [4], in test [5] and in test [6] was > 100 µM (inactive) in each case. In addition, the GI50 in test [7], in test [8], in test [10], in test [11], in test [12] and in test [13] was > 100 µM (inactive) each time. Also, the GI50 in [14], in test [20], in [15], in [17] and in test [18] was > 100 µM (inactive) in each case.

Regarding `COC(=O)Nc1nc2cc(S(=O)(=O)N3CCOCC3)ccc2[nH]1`, the GI50 in [1], in test [2], in test [3], in test [4], in test [5] and in test [6] was > 100 µM (inactive) throughout. For the same compound, the GI50 in test [19] was > 100 µM (inactive); in test [7] it was > 100 µM (inactive); in [8], > 100 µM (inactive); in test [9], > 100 µM (inactive); in [10] it was 26.4 µM (inactive); in test [11], > 100 µM (inactive). The GI50 in [12] was 51.1 µM (inactive); in test [13], > 100 µM (inactive); in [14], 27.6 µM (inactive); in test [20], 30.3 µM (inactive); in test [16] it was > 100 µM (inactive); in [17], > 100 µM (inactive). In test [18], the GI50 was > 100 µM (inactive).

For the compound `Cc1ccc(N2C=Nn3c(nc4sc5c(c4c3=O)CCCC5)C2)cc1`, the GI50 in [1] was 46 µM (inactive); in [2], 38.3 µM (inactive); in test [3] it was 63.8 µM (inactive); in [4], 62.5 µM (inactive); in test [5], 65.5 µM (inactive); in test [6], > 100 µM (inactive). The GI50 in [19] was 55 µM (inactive); in test [7], 88.3 µM (inactive); in test [8], 35.7 µM (inactive); in [9], 54.8 µM (inactive); in test [10], 99.3 µM (inactive); in [11], 44.8 µM (inactive). Also, the GI50 in [13] was 37.8 µM (inactive); in test [14], 70.5 µM (inactive); in test [20] it was 32.1 µM (inactive); in test [15], 39.9 µM (inactive); in [16], 62.1 µM (inactive); in test [17] it was 46.7 µM (inactive). Also, in test [18], the GI50 is 41.7 µM (inactive).

`NC(=O)CO/N=C1/C(=C2/C(=O)Nc3ccccc32)Nc2ccccc21`: the GI50 was 0.247 µM (active) in test [1]; 1.38 µM (inactive) in test [2]; > 100 µM (inactive) in test [3]; > 100 µM (inactive) in test [4]; 10.4 µM (inactive) in [5]; 1.77 µM (inactive) in [6]. Also, the GI50 was 4.35 µM (inactive) in [19]; 0.395 µM (active) in test [7]; > 100 µM (inactive) in test [8]; > 100 µM (inactive) in test [9]; 21.1 µM (inactive) in test [10]; > 100 µM (inactive) in test [11]. For the same compound, the GI50 in [12] was 0.778 µM (active); in [13] it was > 100 µM (inactive); in test [14] it was 53 µM (inactive); in test [20], 17.9 µM (inactive); in [16], 62.5 µM (inactive); in test [17] it was > 100 µM (inactive). For the same compound, in test [18], the GI50 was 0.811 µM (active).

For the compound `c1ccc2c(c1)SCCCSCCSCCCS2`, the GI50 was > 100 µM (inactive) in test [2]; > 100 µM (inactive) in test [3]; > 100 µM (inactive) in [4]; > 100 µM (inactive) in test [5]; 60.5 µM (inactive) in test [6]; > 100 µM (inactive) in test [7]. For the same compound, the GI50 in [8] was > 100 µM (inactive); in [9] it was > 100 µM (inactive); in test [10] it was > 100 µM (inactive); in test [11], > 100 µM (inactive); in test [12] it was > 100 µM (inactive); in test [13] it was 93.5 µM (inactive). Besides, the GI50 in test [14], in [15], in [16], in test [17] and in test [18] was > 100 µM (inactive) throughout.

As for `CC12CC(c3ccccc3O1)C(C(=O)Nc1cccc(F)c1)C(=O)N2` (stereo not given), the GI50 in test [1] was 92.3 µM (inactive); in test [2], 44.7 µM (inactive); in test [4], > 100 µM (inactive); in test [5], 90.4 µM (inactive); in test [6], 7.78 µM (inactive); in test [7], 40.7 µM (inactive). For the same compound, the GI50 in [8] was > 100 µM (inactive); in [9] it was 40.2 µM (inactive); in [10] it was 38.8 µM (inactive); in test [11], 64 µM (inactive); in [12], 38.7 µM (inactive); in [13], 30.1 µM (inactive). Besides, the GI50 in test [14] is 54 µM (inactive); in test [20], 40.7 µM (inactive); in [15], > 100 µM (inactive); in test [16], 24.4 µM (inactive); in test [17] it was > 100 µM (inactive); in [18] it was 17.3 µM (inactive).
